Measurements published in paper PMC7367283, “A PIP2 substitute mediates voltage sensor-pore coupling in KCNQ activation” (Communications Biology, 2020).
“And” between values parts separate entries of the source, which are not always exact repeats. Equal entries are not always repeated.

Columns and labels:
KCNQ2 = KCNQ2 (Homo sapiens, UniProt O43526); assay: Two-electrode voltage clamp of KCNQ2 in Xenopus oocytes; type: cell-based; settings: Q2, individual oocytes
From the text: (§1) KCNQ2 and KCNQ3 form a channel complex that carries M currents in neurons. Similar to KCNQ1, these KCNQ subunits require PIP2 for voltage-dependent activation. KCNQ2 alone can express functional channels in Xenopus oocytes, while KCNQ3 alone cannot. However, a single mutation, A315T, allows KCNQ3 to functionally express in Xenopus oocytes. We examined the effects of CP1 on KCNQ2, KCNQ3 with mutation A315T (denoted as KCNQ3*), KCNQ2+KCNQ3, and KCNQ2+KCNQ3* expressed in Xenopus oocytes (Fig. 5a). Similar to the effects on KCNQ1 and IKs channels, CP1 changed the amplitude of currents (Fig. 5b), shifted the G–V relation to more negative voltages (Fig. 5c), and slowed the deactivation kinetics (Fig. 5d) for all of these KCNQ channels. These CP1 effects were relatively small on KCNQ2 as compared with those on other KCNQ channels, and the effects on KCNQ2/KCNQ3* and KCNQ2/KCNQ3 complexes were closer to those on KCNQ2 alone.
(§2) Fig. 5 Subtype selectivity of CP1 on KCNQ channels. a Current traces of KCNQ channels as indicated in the absence and the presence of 10 µM CP1. […]
(§3) The whole-oocyte ionic currents were recorded with a GeneClamp 500B amplifier (Axon Instruments, CA) or iTEV90 amplifier (HEKA, Germany) and then sampled at 1 kHz and low-pass-filtered at 2 kHz. […] The Kir1.1 current was recorded with a high K^+ bath solution containing (in mM) 96 KCl, 4 NaCl, 1 CaCl2, 2 MgCl2, and 10 HEPES, pH 7.3–7.4. The HCN4 current was recorded in ND66 solution containing (in mM) 66 NaCl, 32 KCl, 1.8 CaCl2, 1 MgCl2, and 5 HEPES, pH 7.6. All the other potassium channels were recorded in ND96 solution. The currents of CaV1.2 channel were recorded in 40 mM Ba^2+ bath solution containing (in mM) 40 Ba(OH)2, 50 TEA-OH, 2 KOH, and 5 HEPES, adjusted to pH 7.4 with methanesulfonic acid. […] The HCN4 currents were recorded by a test pulse between −30 and −140 mV in 10-mV step from a holding potential of −30 mV. […]

[1] = biological target: KCNQ3 with mutation A315T (KCNQ3*) (Homo sapiens, UniProt O43525, A315T); assay: Two-electrode voltage clamp of KCNQ3* in Xenopus oocytes; type: cell-based; settings: Q3*, individual oocytes
From the text: as §1, §2, §3

O=S(=O)([O-])Oc1c(-c2sc3c(ccc4cccc(Cl)c43)c2OS(=O)(=O)[O-])[nH]c2ccc(Br)cc12.[Na+].[Na+] [CP1, DISODIUM 5-BROMO-2-[9-CHLORO-3-(SULFONATOOXY) NAPHTHO [1,2-B] THIEN-2-YL]-1H-INDOL-3-YL SULFATE]
outward current (Icp1/Ictrl) (KCNQ2; 10 µM CP1, at −10 mV): 0.9785 and 0.9995 and 0.8123 and 1.2015 and 0.921 and 1.0361 and 1.0974 and 0.9815 | ∆V1/2 (KCNQ2; 10 µM CP1): 17.7074 mV and 18.0799 mV and 23.5635 mV and 19.0344 mV and 22.5139 mV and 21.9525 mV and 18.3088 mV and 15.6776 mV | τ deact at -120 mV (KCNQ2; 10 µM CP1 treated): 0.0991 s and 0.1579 s and 0.2146 s and 0.1525 s and 0.1022 s | outward current (Icp1/Ictrl) ([1]; 10 µM CP1, at −10 mV): 1.2737 and 1.6954 and 1.3889 and 1.1185 and 2.1991 | ∆V1/2 ([1]; 10 µM CP1): 53.8685 mV and 55.0436 mV and 52.8957 mV and 57.617 mV and 27.8181 mV | τ deact at -120 mV ([1]; 10 µM CP1 treated): 0.795 s and 1.6371 s and 1.4451 s and 1.5742 s and 1.825 s and 1.6646 s
